Measurements: patent US11865090B2, “Tumor suppressive microRNAs for cancer therapy” (Hadasit Medical Research Services and Development Ltd., priority 2018, dated 2024)

Key:
miR-122 promoter [1] = assay: miR-122 promoter luciferase reporter (PmiR-122-900) in Huh7 cells; type: cell-based, human; conditions: 10 μM overnight, measured 48 hours post transfection, normalized to Renilla
Protocol: (§1) Huh7 cells or BNL-1ME cells were transfected with the reporter constructs PmiR-122-900 (wt) or PmiR-122-900 mutated (mut) at RORα binding site. These constructs harbour about 1 kb of miR-122 promoter sequence (wt or mutated at the ROR alpha binding site), ligated to a luciferase (Luc) reporter gene. […] Controls included incubation of the cells with 0.4% DMSO (negative control), or with 75 μM Lauric acid (LA), which is a known activator of ROR-alpha. Luciferase activity was measured 48 hours post transfection and normalized to Renilla Luciferase activity expressed from a co-transfected pRL plasmid.

miR-122 [2] = assay: In vivo miR-122 and CD24 mRNA levels after injection into BALB/C mice
Protocol: As shown in FIG. 8A—SR1078 agent (ROR alpha activator) was injected (1-5 μM) into BALB/C mice and was able to induce miR-122 expression within 3 hours, as indicated by the increased relative expression levels of miR-122 in the liver. miRNA-122 increased expression is in hepatocytes (“producing cells”).
The CD24 gene, the protein product of which is expressed on hepatic progenitors, is a target of miR-122.

miR-122 promoter [3] = assay: miR-122 promoter luciferase reporter (PmiR-122-900) in BNL-1ME cells; type: cell-based, mouse; conditions: 10 μM overnight, measured 48 hours post transfection, normalized to Renilla
Protocol: as §1

miR-122 [4] = assay: AGPAT1-3'UTR (miR-122 target site) luciferase reporter in Huh7 cells; type: cell-based, human; conditions: 10 μM for 24 hours, DNMT1 3'-UTR as negative control
Protocol: Next, Huh7 cells were transfected with a reporter plasmid carrying the human AGPAT1-3′UTR (miR-122 target site) or a negative control reporter plasmid, DNMT1 3′-UTR. Cells were treated for 24 hours with: 0.4% DMSO, or with 75 μM lauric acid (LA) or with RORα agonist (10 μM SR1078) for 24 hours. Presented in FIG. 4B are bar graphs showing the results of the Luciferase assay. Luciferase activity was measured 48 hours post transfection and normalized to Renilla Luciferase activity expressed from a co-transfected pRL plasmid.

miR-34a = miR-34a expression and secretion in Huh7 cells (RT-qPCR); type: cell-based, human; conditions: 10 μM overnight
Protocol: Huh7 cells treated with ROR-alpha agonist SR1078 (10 μM) overnight (o/n). Upon treatment, primary miR-34a expression levels and mature miR-34a secretion were elevated. miR-34a levels were tested in the cells and in their culture medium using RT-qPCR. The results clearly show elevation in the levels of miR-34a in the cells, as well as a marked elevation of the miR-34a in the external medium, indicating the miR-34a is secreted from the cells.

miR-122 [5] = assay: In vivo miR-122 and CD24 mRNA levels after injection into MDR2 knockout mice; conditions: three months old MDR2 KO mice, 6 hours after administration
Protocol: Similar effect is also apparent in measurements performed 6 hours after administration of the inducing agent, to three months old MDR2 knockout (KO) mice (which is a mice that develops liver cancer). This is presented in FIGS. 8C-D, which show the increase in relative levels of miR-122 (FIG. 8C) in liver extracts (hepatocytes) and the reciprocal reduction of CD24 relative expression levels (FIG. 8D), in progenitor cells.

miR-122 [6] = assay: qRT-PCR of miR-122 in medium of Huh7 cells; type: cell-based, human; conditions: 10 μM for 24 hours, normalized to spiked miR-39
Protocol: Shown in FIG. 4C is qRT-PCR analysis of miR-122 and miR-18 (negative control) in RNA extracted from the medium of Huh7 cells treated with 0.4% DMSO, 75 μM lauric acid (LA) or 10 μM RORα agonist (SR1078) for 24 hours. The microRNA levels in the cells' medium were normalized to spiked C. elegance miR-39.

Question: `O=C(Nc1ccc(C(O)(C(F)(F)F)C(F)(F)F)cc1)c1ccc(C(F)(F)F)cc1` [SR1078] was tested. Which “miR-122 promoter activity (Luciferase reporter)” value (miR-122 promoter [1]) did it give?
Answer: Its value is “activation of the miR-122 promoter”.

Question: And the “relative levels (RQ) of mRNA of CD24 in hepatic progenitor cells” value (miR-122 [2]; after injection of SR1078)?
Answer: The value was “reduced”.

Question: What about the “relative expression levels of miR-122 in the liver” value (miR-122 [2]; injected (1-5 μM), 3 hours) of the same compound?
Answer: The value was “increased”.

Question: And the “miR-122 promoter activity (Luciferase reporter)” value (miR-122 promoter [3])?
Answer: Its value is “activation of the miR-122 promoter”.

Question: What about the “expression of active miR-122 acting on AGPAT1 reporter construct (Luciferase assay)” value (miR-122 [4]) of the same compound?
Answer: The value was “increased expression of active miRNA”.

Question: What about the “mature miR-34a secretion” value (miR-34a; RT-qPCR in culture medium) of the same compound?
Answer: Its value is “elevated”.

Question: And the “primary miR-34a expression levels” value (miR-34a; RT-qPCR in the cells)?
Answer: The value was “elevated”.

Question: And the “CD24 relative expression levels in progenitor cells” value (miR-122 [5])?
Answer: Its value is “reduction”.

Question: And the “relative levels of miR-122 in liver extracts (hepatocytes)” value (miR-122 [5])?
Answer: The value was “increase”.

Question: And the “miRNA-122 levels in the medium” value (miR-122 [6])?
Answer: The value was “increase”.
